Viability data for 66 compounds are collected here from patent US20100069393A1, “METHOD OF TREATMENT AND AGENTS USEFUL FOR SAME” (PRANA BIOTECHNOLOGY LIMITED, priority 2006, published 2010).

The data set is described as follows: Neurotoxicity assay: MTS viability of primary cortical neuronal cultures. The class given is cell-based, mouse. To be noted: BL6Jx129sv, mouse, primary cortical neuronal cultures, Neuronal cells, read-out: Cytotoxicity (% viable at 1 and 10 uM); for viability at 4 days, 1 uM: test compound 1 uM; for viability at 4 days, 10 uM: test compound 10 uM. On the procedure: Media was then replaced with Neurobasal media (Invitrogen Life Technologies) and B27 supplements (Invitrogen Life Technologies). Cultures were maintained at 37° C. in 5% CO2. Prior to experimentation, the culture medium was replaced with Neurobasal media and B27 minus antioxidants (Invitrogen Life Technologies).
Cell viability is determined using the MTS assay. Culture medium is replaced with fresh neurobasal medium plus B27 supplements minus antioxidants. 1/10th volume MTS solution (Cell Titre 96 Aqueous One, Promega Corporation) and incubated at 37° C., 2 hrs. 200 microlitre aliquots are measured with a spectrophotometer at 560 nm.
Neuronal cortical cells were cultured for five days as per Assay 2 in NB media and B27 supplement.
On day six the test compounds were added to the neuronal cell cultures in NB media and B27 supplement minus antioxidants.
Test compounds were dissolved in 100% DMSO to a concentration of 2.5 mM (10 mM if excess compound was weighed out per vial—then diluted to 2.5 mM). […] Test compounds were not added directly to cells, instead they were added to a 48 well ‘Drug Plate’ as comprised below:
The Drug Plate was incubated at 37° C. for 15 mins. 200 μl of each well was added in triplicate to the corresponding cell plate. The cell plate was incubated at 37 C, for 4 days.
On completion of the assay, 1/10 volume MTS was added per well of plate (i.e. 25 μl/250 μl). The plates were incubated at 37 C for 2 hrs, and then absorbance was read at 560 nm.

On to `Oc1c(Cl)cc(Cl)c2ccc(-c3ccccn3)nc12`, for which the viability at 4 days, 1 uM worked out at 55% and the viability at 4 days, 10 uM amounted to 31%.
The matching figures for `O=C(O)CNC(=O)c1ccc2cccc(O)c2n1`: 100% and 89%.
On to `CCCn1c(CNC)nc2c(O)c(Cl)cc(Cl)c2c1=O`, for which the viability at 4 days, 1 uM was 110% and the viability at 4 days, 10 uM was 102%.
The matching figures for `O=C(Nc1nccs1)c1ccc2cccc(O)c2n1`: 100% and 100%.
Regarding `Oc1cccc2ccc(CNCCc3c[nH]cn3)nc12`, the viability at 4 days, 1 uM turned out to be 101% and the viability at 4 days, 10 uM is 43%.
As to `Cc1nccn1-c1ccc2cccc(O)c2n1`, the viability at 4 days, 1 uM stood at 104% and the viability at 4 days, 10 uM amounted to 96%.
In the case of `COc1cccc(-c2cc(Cl)c3cccnc3c2O)c1`, the viability at 4 days, 1 uM amounted to 83% and the viability at 4 days, 10 uM is 71%.
Consider `CNCc1ccc2c(Cl)cc(Cl)c(O)c2n1`, for which the viability at 4 days, 1 uM turned out to be 86% and the viability at 4 days, 10 uM turned out to be 78%.
Regarding `Oc1ccc(/C=C/c2ccc3cccc(O)c3n2)cc1`, the viability at 4 days, 1 uM is 100% and the viability at 4 days, 10 uM was determined as 75%.
The corresponding values for `O=C(NCc1ccccn1)c1cc(O)c2cccc(O)c2n1` are 100% and 100%.
The matching figures for `Oc1ccc(CCc2ccc3cccc(O)c3n2)cc1`: 89% and 86%.
The matching figures for `Oc1cccc2ccc(CN(Cc3ccccn3)Cc3nccs3)nc12`: 97% and 38%.
As to `O=C(Nc1ccccc1O)c1ccc2cccc(O)c2n1`, the viability at 4 days, 1 uM came out at 104% and the viability at 4 days, 10 uM was 92%.
The corresponding values for `NCc1ccc2c(Cl)cc(Cl)c(O)c2n1` are 100% and 80%.
The corresponding values for `Nc1cnc2c(O)c(Cl)cc(Cl)c2c1` are 94% and 10%.
`Cc1ccccc1-c1cc(Cl)c2cccnc2c1O`: the viability at 4 days, 1 uM came to 100% and the viability at 4 days, 10 uM was determined as 100%.
`COc1c(Cl)cc(Cl)c2c(=O)n(N)cnc12`: the viability at 4 days, 1 uM was 99% and the viability at 4 days, 10 uM was 93%.
The corresponding values for `Cc1cccc(-c2cc(Cl)c3cccnc3c2O)c1` are 98% and 73%.
In the case of `Cc1cc(C)c2cccnc2c1O`, the viability at 4 days, 1 uM worked out at 86% and the viability at 4 days, 10 uM was 85%.
On to `CN(CCc1ccccn1)Cc1ccc2cccc(O)c2n1`, for which the viability at 4 days, 1 uM was found to be 97% and the viability at 4 days, 10 uM was determined as 57%.
The matching figures for `Oc1c(-c2cc(Cl)c3cccnc3c2O)cc(Cl)c2cccnc12`: 97% and 84%.
For `Oc1cccc2ccc(CNCc3ccccn3)nc12`, the viability at 4 days, 1 uM is 96% and the viability at 4 days, 10 uM was 67%.
As to `O/N=C/c1ccc2c(Cl)cc(Cl)c(O)c2n1`, the viability at 4 days, 1 uM came out at 91% and the viability at 4 days, 10 uM stood at 70%.
Regarding `CN(C)c1ccc(-c2cc(Cl)c3cccnc3c2O)cc1`, the viability at 4 days, 1 uM amounted to 94% and the viability at 4 days, 10 uM was found to be 85%.
The corresponding values for `Oc1c(-c2ccccc2)cc(Cl)c2cccnc12` are 93% and 72%.
The matching figures for `O=C(NCc1ccccn1)c1ccc2cccc(O)c2n1`: 96% and 85%.
For the compound `Cc1cnc2c(O)c(Cl)cc(Cl)c2n1`, the viability at 4 days, 1 uM turned out to be 94% and the viability at 4 days, 10 uM stood at 87%.
As for `NCCNC(=O)c1ccc2cccc(O)c2n1`, the viability at 4 days, 1 uM was 106% and the viability at 4 days, 10 uM is 96%.
For the compound `O=c1[nH]cnc2c(O)cccc12`, the viability at 4 days, 1 uM worked out at 101% and the viability at 4 days, 10 uM came out at 89%.
Turning to `Oc1c(-c2ccccc2C(F)(F)F)cc(Cl)c2cccnc12`, the viability at 4 days, 1 uM amounted to 96% and the viability at 4 days, 10 uM worked out at 93%.
In the case of `O=C(CNC(=O)c1cc(O)c2cccc(O)c2n1)NCCc1c[nH]cn1`, the viability at 4 days, 1 uM amounted to 98% and the viability at 4 days, 10 uM worked out at 89%.
Consider `CC(=O)Nc1ccc2cccc(O)c2n1`, for which the viability at 4 days, 1 uM came out at 93% and the viability at 4 days, 10 uM was found to be 89%.
As for `O=C(O)CNC(=O)c1cc(O)c2cccc(O)c2n1`, the viability at 4 days, 1 uM is 98% and the viability at 4 days, 10 uM was determined as 94%.
As for `COc1ccccc1-c1cc(-c2ccccc2OC)c2cccnc2c1O`, the viability at 4 days, 1 uM is 100% and the viability at 4 days, 10 uM stood at 52%.
With `CCN(CC)Cc1ccc2c(Cl)cc(Cl)c(O)c2n1`, the viability at 4 days, 1 uM turned out to be 74% and the viability at 4 days, 10 uM is 70%.
The matching figures for `NCc1ccc2cccc(O)c2n1`: 101% and 97%.
With `CN(c1ccccn1)c1ccc2c(Cl)cc(Cl)c(O)c2n1`, the viability at 4 days, 1 uM came to 100% and the viability at 4 days, 10 uM came out at 59%.
The matching figures for `CC(=O)NCc1ccc2cccc(O)c2n1`: 100% and 91%.
The matching figures for `Nc1ccc2cccc(O)c2n1`: 95% and 48%.
In the case of `Oc1cccc2ccc(CN(CCc3c[nH]cn3)Cc3ccccn3)nc12`, the viability at 4 days, 1 uM stood at 98% and the viability at 4 days, 10 uM was found to be 27%.
Take `Oc1ccc(Cl)c2cccnc12`: the viability at 4 days, 1 uM is 94% and the viability at 4 days, 10 uM was determined as 85%.
The matching figures for `Oc1cccc2ccc(CN(Cc3ccccn3)Cc3ccccn3)nc12`: 87% and 23%.
The matching figures for `Oc1c(Cl)cc(Cl)c2cc(Cl)cnc12`: 82% and 55%.
`Oc1cccc2ccc(-c3ccccn3)nc12`: the viability at 4 days, 1 uM amounted to 107% and the viability at 4 days, 10 uM was determined as 75%.
The matching figures for `N#Cc1ccc2cccc(O)c2n1`: 94% and 97%.
As for `Oc1c(Br)cc(Br)c2cccnc12`, the viability at 4 days, 1 uM amounted to 100% and the viability at 4 days, 10 uM is 94%.
The matching figures for `Oc1c(-c2ccc(F)cc2)cc(Cl)c2cccnc12`: 103% and 75%.
The matching figures for `Cc1cnc2c(Cl)cc(Cl)c(O)c2n1`: 100% and 93%.
The corresponding values for `O=C(NCCc1ccccn1)c1ccc2cccc(O)c2n1` are 95% and 93%.
Regarding `O=C(NCCc1cnc[nH]1)c1cc(O)c2cccc(O)c2n1`, the viability at 4 days, 1 uM was 100% and the viability at 4 days, 10 uM is 100%.
For `Oc1c(-c2ccccc2F)cc(Cl)c2cccnc12`, the viability at 4 days, 1 uM is 96% and the viability at 4 days, 10 uM was 54%.
The corresponding values for `N=C(N)NCc1ccc2cccc(O)c2n1` are 100% and 89%.
`Oc1cccc2c(=S)n(Cc3ccccn3)cnc12`: the viability at 4 days, 1 uM was 97% and the viability at 4 days, 10 uM was 90%.
As to `Oc1c(I)cc(-c2ccccc2F)c2cccnc12`, the viability at 4 days, 1 uM is 92% and the viability at 4 days, 10 uM was found to be 34%.
As to `Cc1ccc2cccc(O)c2n1`, the viability at 4 days, 1 uM is 98% and the viability at 4 days, 10 uM worked out at 58%.
Consider `Oc1c(I)cc(I)c2cccnc12`, for which the viability at 4 days, 1 uM stood at 91% and the viability at 4 days, 10 uM is 95%.
The corresponding values for `Oc1cccc2ccc(-n3cncn3)nc12` are 102% and 97%.
The matching figures for `O=C(NCCc1c[nH]cn1)c1ccc2cccc(O)c2n1`: 100% and 100%.
With `Cc1cnc(NC(=O)c2ccc3cccc(O)c3n2)s1`, the viability at 4 days, 1 uM stood at 94% and the viability at 4 days, 10 uM was determined as 68%.
For the compound `Oc1c(Cl)cc(Cl)c2cccnc12`, the viability at 4 days, 1 uM amounted to 98% and the viability at 4 days, 10 uM came out at 75%.
Consider `Oc1cccc2ccc(CN(CCc3c[nH]cn3)Cc3nccs3)nc12`, for which the viability at 4 days, 1 uM is 82% and the viability at 4 days, 10 uM was 34%.
Regarding `Nc1ccccc1NC(=O)c1cc(O)c2cccc(O)c2n1`, the viability at 4 days, 1 uM came out at 98% and the viability at 4 days, 10 uM was found to be 82%.
The matching figures for `Cc1ccccc1-c1cc(I)c(O)c2ncccc12`: 99% and 38%.
With `Oc1c(-c2ccccc2)cc(-c2ccccc2)c2cccnc12`, the viability at 4 days, 1 uM stood at 97% and the viability at 4 days, 10 uM stood at 26%.
The corresponding values for `Oc1c(-c2cc3ccccc3s2)cc(Cl)c2cccnc12` are 87% and 32%.
The matching figures for `O=Cc1ccccc1-c1cc(Cl)c2cccnc2c1O`: 109% and 99%.
